Results reported in US6211244A, “Calcium receptor-active compounds” (priority 1995, dated 2001).
Read-outs that look alike come from different tables or passages of the source.

Molecular target: T1, human calcium receptor (Homo sapiens, UniProt P41180, R990G)
T1 construct: expressed in transfected cells; host or cells: HEK 293
T1 sequence (P41180 20-1078 R990G): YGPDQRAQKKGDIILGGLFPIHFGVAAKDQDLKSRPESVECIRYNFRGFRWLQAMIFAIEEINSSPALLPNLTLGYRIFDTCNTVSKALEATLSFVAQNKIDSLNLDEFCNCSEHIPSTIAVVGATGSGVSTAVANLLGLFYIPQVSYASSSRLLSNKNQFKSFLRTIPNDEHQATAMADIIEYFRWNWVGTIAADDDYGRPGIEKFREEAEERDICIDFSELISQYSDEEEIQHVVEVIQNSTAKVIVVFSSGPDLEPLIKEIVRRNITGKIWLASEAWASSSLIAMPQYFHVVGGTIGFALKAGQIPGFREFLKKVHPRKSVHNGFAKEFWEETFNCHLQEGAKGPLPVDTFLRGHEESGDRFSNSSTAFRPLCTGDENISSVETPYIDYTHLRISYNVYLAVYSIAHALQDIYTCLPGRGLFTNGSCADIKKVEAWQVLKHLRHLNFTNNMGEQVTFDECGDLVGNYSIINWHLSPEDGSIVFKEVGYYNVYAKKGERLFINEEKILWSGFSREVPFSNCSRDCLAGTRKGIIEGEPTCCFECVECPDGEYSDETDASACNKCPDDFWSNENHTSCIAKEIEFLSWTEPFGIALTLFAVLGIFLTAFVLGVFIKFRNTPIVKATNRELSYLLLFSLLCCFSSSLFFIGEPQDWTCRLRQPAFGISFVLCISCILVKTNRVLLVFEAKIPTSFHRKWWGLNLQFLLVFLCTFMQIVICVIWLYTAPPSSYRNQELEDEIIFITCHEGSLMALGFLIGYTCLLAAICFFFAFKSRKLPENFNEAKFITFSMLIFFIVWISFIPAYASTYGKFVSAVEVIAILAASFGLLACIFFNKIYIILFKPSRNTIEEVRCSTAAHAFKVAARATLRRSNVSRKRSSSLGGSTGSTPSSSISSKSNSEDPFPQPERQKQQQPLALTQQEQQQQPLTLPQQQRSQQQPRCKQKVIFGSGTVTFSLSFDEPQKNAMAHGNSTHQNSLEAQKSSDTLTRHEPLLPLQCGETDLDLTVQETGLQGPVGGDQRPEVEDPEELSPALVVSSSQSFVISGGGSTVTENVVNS
Test: increases in [Ca^2+ ]i in HEK-293 cells expressing the human calcium receptor (fura-2 loaded HEK 293/pHuPCaR4.0 cells), % activity
Assay type: cell-based
Conditions: for activity at […]: HEK293

| Structure (SMILES) | activity at […] (33 ng/mL) [%] | activity at […] (330 ng/mL) [%] | % activity (33 ng/mL) [%] | % activity (330 ng/mL) [%] | % activity (3300 ng/mL) [%] | % activity |
| --- | --- | --- | --- | --- | --- | --- |
| COc1cccc([C@@H](C)NCc2cccc3ccccc23)c1 [Compound 25F] | 76 | 85 | – | – | – | – |
| COc1ccc(CNC(C)c2cccc(C(C)=O)c2)cc1C (centres unmarked) [Compound 23U] | – | – | 48 | 87 | – | – |
| COc1cccc([C@@H](C)NCCc2ccccc2)c1 [Compound 25Q] | – | – | 77 | 95 | 116 | – |
| COc1cccc(C(C)NCc2cccc3ccccc23)c1 (centres unmarked) [Compound 3V] | – | – | 14 | 56 | – | – |
| CC(NC(C)c1cccc2ccccc12)c1ccccc1 (centres unmarked) [Compound 14P] | – | – | 78 | 103 | 112 | – |
| COc1cccc([C@@H](C)NCCCc2cccc(Cl)c2)c1 [Compound 6X] | – | – | 52 | 84 | – | – |
| COc1ccc(CNC(C)c2ccc(I)cc2)cc1C (centres unmarked) [Compound 23T] | – | – | 60 | 74 | 102 | – |
| COc1cccc([C@@H](C)NC2Cc3ccccc3C2)c1 [Compound 25P] | – | – | 75 | 81 | 90 | – |
| CC(C)c1ccc(CN[C@H](C)c2cccc3ccccc23)cc1.Cl [Compound 11X, N-(4-Isopropylbenzyl)-(R)-1-(1-naphthyl)ethylamine hydrochloride] | – | – | 76 | 100 | – | – |
| C[C@@H](NCc1ccc(OCc2ccccc2)cc1)c1cccc2ccccc12 [Compound 12I] | – | – | 93 | 111 | 115 | – |
| CC(O)c1ccc(CNC(C)c2cccc3ccccc23)cc1 (mixture of isomers) [Compound 17B] | – | – | 61 | 92 | – | – |
| C[C@@H](NCc1ccccc1)c1cccc2ccccc12 [Compound 12L] | – | – | – | 88 | – | 45 |
| CC(C)Oc1cccc([C@@H](C)NCCCc2ccccc2Cl)c1 [Compound 21T] | – | – | 53 | 112 | 133 | – |
| COc1cccc([C@@H](C)NCc2ccc(C(C)C)cc2)c1 [Compound 11Y] | – | – | 61 | 103 | – | – |
| COc1ccc(C(NC(C)c2cccc3ccccc23)C2CC2)cc1 (single isomer, unassigned) [Compound 17I] | – | – | 76 | 97 | 118 | – |
| COc1cccc([C@@H](C)NCCCc2ccccc2C(F)(F)F)c1 [Compound 21O] | – | – | 75 | 109 | – | – |
| COc1ccc(CNC(C)c2cccc(F)c2)cc1C (centres unmarked) [Compound 23K] | – | – | 72 | 107 | 106 | – |
| CCOc1ccc(CN[C@H](C)c2cccc3ccccc23)cc1Cl [Compound 24Y] | – | – | 127 | 120 | 119 | – |
| C[C@@H](NCc1cccc2ccccc12)c1cccc2ccccc12 [Compound 25L] | – | – | 85 | 97 | 97 | – |
| C[C@H](CCc1cccc(OC(F)(F)F)c1)N[C@@H](C)c1cccc2ccccc12 [Compound 22X, (S,R)-N-[4-(3-trifluoromethoxyphenyl)-2-butyl]-1-(1-naphthyl)ethylamine] | 48 | 86 | – | – | – | – |
